Measurements as given in US20240360215A1, “ANTI-CD19 ANTIBODY IN THE TREATMENT OF CNS LYMPHOMA” (The Regents of the University of California, priority 2023, published 2024).
“Also recorded” adds a separate entry of the source.

Tests used:
Assay type in all cases: in vivo, human
[1] = test system: secondary CNS lymphoma; assay: illustrative treatment of first patient (large-B cell lymphoma, CNS relapse), MRI follow-up; conditions: for severe treatment-related toxicities requiring inpatient management: earlier therapies
Source text: Staging documented concomitant right adrenal involvement. Treatment at an outside institution consisted of six cycles of high-dose methotrexate (HD-MTX) intercalated with rituximab, cyclophosphamide, adriamycin, vincristine, prednisone (R-CHOP) plus intrathecal cytarabine, also six cycles. At 7 months there was multifocal CNS progression and the patient was transferred to a tertiary care center where they received eight cycles of HD-MTX, six doses of temozolomide plus rituximab (MTR), consolidation with etoposide-ara-C (Soussain et al, J. Clin. Oncol 19:[…]; Rubenstein et al, J. Clin Oncol. 31:3061-8, 2013) followed by autologous stem cell transplantation and lenalidomide maintenance. However, at 6 months after transplantation, multifocal CNS progression was again evident on magnetic resonance imaging (MRI). This second relapse was treated with repeat HD-MTX (eight cycles) plus rituximab followed by focal irradiation to a refractory lesion in the right postcentral gyrus, followed by pomalidomide maintenance, resulting in a CNS response duration of nearly 2 years. A third isolated CNS relapse manifested by new multifocal lesions with mild left-to-right midline shift.
Ibrutinib was therefore discontinued and the patient continued on lenalidomide (10 mg/day), now co-administered with intravenous tafasitamab (12 mg/kg), without dexamethasone, following the schedule of the L-MIND study. […] The patient continues twice monthly infusion of tafasitamab, plus lenalidomide days 1-21, and remains in radiographic remission, both in brain and systemically, at 22 months since starting this combination.

[2] = test system: primary CNS lymphoma; assay: illustrative treatment of second patient (multifocal primary CNS lymphoma, large B-cell type), MRI follow-up
Method: At first relapse they were re-treated with MTR followed by lenalidomide maintenance (5 mg/day) with intermittent high-dose methotrexate/rituximab every 4 months, resulting in sustained disease control on MRI for 3 years. At progression on lenalidomide they were re-challenged with MTR but immediately experienced growth of new lesions in the left frontal lobe, centrum semiovale and splenium of the corpus callosum. […] However, the corpus callosal lesion was resistant. […] (For image, see, Rauschecker et al., Br J Haematol, 201:154-157, first published January 23 2023).

[3] = test system: relapsed CNS lymphoma; assay: phase I trial of tafasitamab plus lenalidomide in relapsed CNS lymphoma (NCT05351593); conditions: Patient 2; lenalidomide 15 mg/day, off study
Method: This patient's disease previously progressed on lenalidomide monotherapy at a higher dose of 15 mg/day.
The role of tafasitamab in these cases is evident based on prior resistance to lenalidomide, pomalidomide and rituximab.
Three were treated at the 10 mg lenalidomide dose level and one at the 15 mg lenalidomide dose level. […] The longest response duration was six months.
Illustrative responses of patient 2 in this study are depicted in FIG. 1.

C=CC(=O)N1CCC[C@@H](n2nc(-c3ccc(Oc4ccccc4)cc3)c3c(N)ncnc32)C1 [ibrutinib]
severe treatment-related toxicities requiring inpatient management [1]: pancytopenia, gastrointestinal bleeding, and necrotizing gangrenous cholecystitis

Nc1cccc2c1CN(C1CCC(=O)NC1=O)C2=O (stereo not shown) [lenalidomide]
time to multifocal CNS progression on MRI after transplantation ([1]; lenalidomide maintenance after autologous stem cell transplantation): 6 months
sustained disease control on MRI ([2]; first relapse, MTR then lenalidomide maintenance 5 mg/day with intermittent high-dose methotrexate/rituximab every 4 months): 3 years
response duration ([2]; lenalidomide maintenance 5 mg/day, days 1-21, after complete response with MTR): 17 months
disease response to earlier lenalidomide monotherapy [3]: progressed; also recorded: refractory

Nc1cccc2c1C(=O)N(C1CCC(=O)NC1=O)C2=O (stereo not shown) [pomalidomide]
severe treatment-related toxicities requiring inpatient management [1]: two independent episodes of pneumonia, associated with respiratory syncytial virus and later, aspergillosis
CNS response duration ([1]; pomalidomide maintenance after repeat HD-MTX plus rituximab and focal irradiation): ~2 years
